Data from US10883963B2, “Electrochemical measurement using phenylenediamine derivative” (SEIKAGAKU CORPORATION, priority 2016, dated 2021).
Like-named read-outs stand apart in the source and are kept apart here.

Legend:
[1] = Evaluation of quantitative performance: cyclic voltammetry and chronoamperometry of substrate / free molecule mixed solutions; assay type: physicochemical; conditions: mixed solution of substrate and free molecule, 0.1 M HEPES pH 7.8, vs. Ag/AgCl
From the text: As a result of performing a cyclic voltammetric measurement in which the mixture ratio of a substrate and free molecule (labeling substance) was varied in stages, in a voltammogram of a mixed solution of LGR-pAP and pAP, two oxidation peaks at 0.15 V and 0.49 V were confirmed. From individual voltammograms of a substrate molecule and a free molecule, the peak near 0.49 V is considered to be derived from oxidation of LGR-pAP, and the peak near 0.15 V is considered to be derived from oxidation of pAP. Similarly, from a voltammogram of a mixed solution of LGR-DMPD and DMPD, an oxidation peak derived from LGR-DMPD was confirmed near 0.45V, and an oxidation peak derived from DMPD was confirmed near 0.19 V. Further, from a voltammogram of a mixed solution of LGR-MPDD and MPDD, an oxidation peak derived from LGR-MPDD was confirmed near 0.46 V, and an oxidation peak derived from MPDD was confirmed near 0.14 V. Further, when using any substrate, an oxidation peak current value of free molecules increased as the percentage of a free molecule increased. From these facts, it was considered that a concentration of free molecules in each mixed solution could be amperometrically quantified at a potential of 0.3 V vs. Ag/AgCl. Next, in each mixed solution, chronoamperometry was performed. […]
As an electrochemical measurement method, cyclic voltammetry and a potential step chronoamperometric method were used. […] In the cyclic voltammetric measurement, potential scanning was performed by setting an initial potential and a finish potential to 0 V, a first turnover potential to 0.4 V (0.6 V for LGR-pAP and LGR-DMPD, 0.7 V for LGR-MPDD), and a second turnover potential to −0.2 V, and the current was monitored. In the potential step chronoamperometric measurement, after 0.0 V was applied to the working electrode for 10 seconds, the potential was momentarily changed to 0.3 V, and the current was monitored for 35 seconds. […]

[2] = system: Limulus reagent Endospecy ES-24S; assay: Limulus test (2): endotoxin measurement by voltammetric method using labeled substrates; assay type: biochemical; conditions: substrate for measurement 0.5 mM
Description: Limulus tests using the substrates for measurement acquired in <Reference Example 1> described above were performed, and measurements of endotoxin were performed by a voltammetric method. The test procedures are shown below.
The same conditions as those described in <Limulus Reaction> of <Example 2> described above were applied except that a cyclic voltammetric measurement was performed instead of the chronoamperometric measurement.
The same conditions as described in <Measurement Conditions> of <Example 1> above were applied.

[3] = Stability of labeling substances and substrates in 0.1 M HEPES at 37° C., cyclic voltammetric measurement; assay type: physicochemical; conditions: for relative value of height of oxidation peak in voltammogram of free molecule (0 hours = 100%): 1.0 mM in 0.1 M HEPES pH 7.8, 37° C., light-shielded; for change of detected value in 2 hours after preparation: 0.1 M HEPES pH 7.8, 37° C.
Description: The labeling substances (pAP, MPDD, and DMPD) and the substrates for measurement (LGR-pAP, LGR-MPDD, LGR-DMPD) were dissolved into 0.1 M HEPES (pH 7.8) and prepared to be 1 mM, and were left to stand for 1 to 24 hours in an incubator at 37° C. Thereafter, a test was performed according to the following procedures.
As an electrochemical measurement method, cyclic voltammetry and a potential step chronoamperometric method were used. As a measuring device, a working electrode, a reference electrode, and a counter electrode, those described in <Measurement Conditions> below were used. In each measurement, the working electrode, the reference electrode, and the counter electrode were inserted in a solution, and respectively connected to connectors of a potentiostat for a working electrode, a reference electrode, and a counter electrode. After each measurement, the electrode surface of the working electrode was polished with […] polishing alumina, and cleaned with ultrapure water. In the cyclic voltammetric measurement, potential scanning was performed by setting an initial potential and a finish potential to 0 V, a first turnover potential to 0.4 V (0.6 V for LGR-pAP and LGR-DMPD, 0.7 V for LGR-MPDD), and a second turnover potential to −0.2 V, and the current was monitored. In the potential step chronoamperometric measurement, after 0.0 V was applied to the working electrode for 10 seconds, the potential was momentarily changed to 0.3 V, and the current was monitored for 35 seconds.
50 ml of test solutions (1.0 mM) of the respective substrates (LGR-pAP, LGR-MPDD, LGR-DMPD) and free molecules (pAP, MPDD, DMPD) were prepared by using 0.1 M HEPES (pH=7.8), put in a disposable 50 ml centrifuge tube (manufactured by IWAKI), and left to stand at 37° C. under light-shielded conditions. When a predetermined time (0.5 h, 1 h, 2 h, 4 h, and 24 h) elapsed, 5 ml was sampled from the test solution and subjected to cyclic voltammetric measurement. MPDD was measured when 6 hours and 8 hours elapsed as well. By using a test solution just after preparation, a measurement at a predetermined time of 0 hours was performed.

[4] = 1 mM; FIG. 4 of Patent Literature 1; cited from earlier work
[5] = system: Limulus reagent Endospecy ES-24S; conditions: FIG. 8 of Patent Literature 1; cited from earlier work
[6] = 0 hours (just after preparation)

SMILES	oxidation peak potential in cyclic voltammogram [1] [V]	Measured value B: maximum value of oxidation peak current value in Limulus test with substrate (labeling substance bonded to LGR) [2] [μA]	relative value of height of oxidation peak in voltammogram of free molecule (0 hours = 100%) [3, 6] [%]	relative value of height of oxidation peak in voltammogram of free molecule (0 hours = 100%) ([3]; 0.5 h) [%]	relative value of height of oxidation peak in voltammogram of free molecule (0 hours = 100%) ([3]; 1 h) [%]	relative value of height of oxidation peak in voltammogram of free molecule (0 hours = 100%) ([3]; 2 h) [%]	change of detected value in 2 hours after preparation [3]	oxidation peak current value of labeling substance itself [4]	Measured value B: maximum value of oxidation peak current value in Limulus test with substrate (labeling substance bonded to LGR) [5] [μA]
CN(C)c1ccc(N)cc1 [DMPD, N, N-dimethyl-p-phenylenediamine]	~0.19	0.31	100.0	95.3	94.3	84.5	showed a tendency to successively decrease		
CNc1ccc(N)cc1 [MPDD, N-methyl-p-phenylenediamine]	~0.14	0.60	100.0	102.4	102.3	101.0	no decrease		
Nc1ccc(O)cc1 [pAP, P-aminophenol, reference compound]	~0.15		100.0	94.2	95.0	83.0	showed a tendency to successively decrease		
COc1ccc(N)cc1 [pMA, para methoxyaniline]								approximately 3.0 μA	0.28
